Where two headings read alike, the source gives them in different places.
Assays:
[1] = target: T1, Recombinant human ALOX15 (Arachidonate 15-Lipoxygenase) (Homo sapiens, UniProt P16050); assay: Biochemical LOX-15 assay
T1 construct: full length encompassing amino acids 2-662(end); purchased BPS Biosciences 50220
T1 sequence (P16050 2-662): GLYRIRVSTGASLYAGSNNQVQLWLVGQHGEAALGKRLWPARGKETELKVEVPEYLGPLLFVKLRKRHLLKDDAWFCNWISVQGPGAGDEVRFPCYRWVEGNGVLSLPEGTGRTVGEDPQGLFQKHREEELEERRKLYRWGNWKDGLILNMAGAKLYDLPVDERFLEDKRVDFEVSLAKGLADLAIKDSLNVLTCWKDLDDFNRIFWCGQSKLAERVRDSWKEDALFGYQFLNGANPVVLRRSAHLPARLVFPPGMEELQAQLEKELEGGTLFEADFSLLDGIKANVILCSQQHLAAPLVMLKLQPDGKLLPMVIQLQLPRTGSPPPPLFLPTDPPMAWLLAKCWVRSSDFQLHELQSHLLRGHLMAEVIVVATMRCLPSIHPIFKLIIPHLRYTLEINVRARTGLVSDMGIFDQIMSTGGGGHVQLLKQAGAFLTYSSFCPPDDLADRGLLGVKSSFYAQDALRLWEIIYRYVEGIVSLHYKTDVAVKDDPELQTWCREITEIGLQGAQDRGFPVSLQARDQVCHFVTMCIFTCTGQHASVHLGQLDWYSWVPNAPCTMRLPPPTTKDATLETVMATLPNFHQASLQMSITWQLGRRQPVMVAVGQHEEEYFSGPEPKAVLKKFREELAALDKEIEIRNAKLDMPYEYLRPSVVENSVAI
Protocol: The LOX-15 assay was performed in assay buffer comprising: 50 mM Tris (pH 7.5), 5 uM DHR, 50 uM AA, and 50 nM recombinant enzyme. Serially diluted compounds were prepared in DMSO in Echo qualified 384 well plates. An assay buffer was then prepared […] supplemented 10 uM DHRA. 10 uL of the supplemented buffer was dispensed into control (no enzyme) wells in the black 384 well assay plate. Next, a 2× enzyme solution was prepared, comprising 100 nM LOX-15 enzyme in the supplemented assay buffer. 10 μL of the 2× enzyme solution was then dispensed into test wells in the black 384 well assay plate. Serially diluted compounds were added to the assay plate by acoustic dispensing (Labcyte 550). Control wells received DMSO only.
Next, the 2× substrate was prepared to comprise 100 uM arachidonic acid in the assay buffer. 10 uL of the 2× substrate was then added to all wells in the assay plate. The plate was incubated for 3 hours.
where RFU100% is fluorescence in control samples without compound, RFU0% is fluorescence in control samples without LOX-15, and RFUcompound fluorescence in a sample with compound.
The calculated %-Inh values were plotted against compound concentration. To determine EC50 values, dose-response curves were fitted by a 4-parameter sigmoid inhibition model using XLFit® software (IDBS).

TNFa = TNFa secretion assay in human PBMCs (LPS, ELISA); type: cell-based; conditions: read-out: Inhibitory Activity EC50, TNF
Protocol: Fetal bovine serum (FBS) was obtained from ThermoFisher (Cat #16000044). • Other reagents: 96 well TC plates were obtained from ThermoFisher (Cat #07-2000-90). LPS was obtained from Sigma (Cat #L3024).
TNF-alpha was assessed using a standard ELISA protocol. Cryopreserved PBMCs were thawed in a water bath and transferred to 50 mL polypropylene tubes. The cells were washed two times with 25 mL of RPMI medium supplemented with 5% of heat-inactivated FBS and re-suspended at a density of 4.5^^6 cells/mL. The cells were plated into 96 well TC late (100 uL/well). Serially diluted compound was added to the cells in duplicate wells for each concentration. Control wells received DMSO only (0.3% final). The cells were pre-incubated with compound for 1 hr. After pre-incubation, the cells were stimulated by LPS (100 ng/mL) for 6 hr. Control samples with and without LPS in the absence of compound were assembled in each test plate. TNFa was detected in media supernatants by using a sandwich anti-TNFa ELISA kit (BD Biosciences) according to protocol provided by the manufacturer. ELISA readout (optical density at 450 nm) is commensurable with the amount of TNFa produced by the cells. Assay window was determined in each experiment by comparing average OD450 values in stimulated and un-stimulated samples in the absence of compound. ELISA calibration was performed in each detection plate using serially diluted recombinant human TNFa, to ensure that OD450 values for all test samples were within linear range of detection.%-Inhibition by compound was calculated using following equation:
where OD450100% is optical density in control samples stimulated with LPS without compound, OD4500% is optical density in unstimulated control samples, and OD450compound is optical density in a sample stimulated with LPS in the presence of compound.
(§1) The calculated %-Inh values were plotted against compound concentration. To determine IC50 values, dose-response curves were fitted by a 4-parameter sigmoid inhibition model using XLFit® software (IDBS).

IFNgamma = IFNgamma secretion assay in human PBMCs (PHA-M, ELISA); type: cell-based; conditions: for EC50: read-out: Inhibitory Activity EC50, IFNγ
Protocol: Fetal bovine serum (FBS) was obtained from ThermoFisher (Cat #16000044). • Other reagents: 96 well TC plates were obtained from ThermoFisher (Cat #07-2000-90).
IFN-gamma was assessed using a standard ELISA protocol. Cryopreserved PBMCs were thawed in a water bath and transferred to 50 mL polypropylene tubes. The cells were washed two times with 25 mL of RPMI medium supplemented with 5% of regular FBS and re-suspended at a density of 1.5^^6 cells/mL. The cells were plated into 96 well TC late (100 uL/well). Serially diluted compound was added to the cells in duplicate wells for each concentration. Control wells received DMSO only (0.3% final). The cells were pre-incubated with compound for 2 hr. After pre-incubation, the cells were stimulated by PHA-M (10 ug/mL) for 40 hr. Control samples with and without PHA-M in the absence of compound were assembled in each test plate. IFNg was detected in media supernatants by using a sandwich anti-IFNg ELISA kit (BD Biosciences) according to protocol provided by the manufacturer. ELISA readout (optical density at 450 nm) is commensurable with the amount of IFNg produced by the cells. Assay window was determined in each experiment by comparing average OD450 values in stimulated and un-stimulated samples in the absence of compound. ELISA calibration was performed in each detection plate using serially diluted recombinant human IFN gamma, to ensure that OD450 values for all test samples were within linear range of detection. %-Inhibition by compound was calculated using following equation:
where OD450100% is optical density in control samples stimulated with PHA-M without compound, OD4500% is optical density in unstimulated control samples, and OD450compound is optical density in a sample stimulated with PHA-M in the presence of compound.
as §1

IL-1β = IL-1β inhibitory activity; type: cell-based
[2] = PBMC, human PBMCs, LPS 100 ng/mL 6 hr
[3] = PBMC, human PBMCs, PHA-M 10 ug/mL 40 hr
[4] = recombinant enzyme, read-out: Inhibitory Activity EC50, 15-Lox

`CCCCCc1cc(OC(C)=O)c(C/C=C(\C)CCC=C(C)C)c(O)c1OC(C)=O` [Formula XLIII] gave an EC50 [1] of 8.4 µM, an EC50 (TNFa; [2]) of 8.68 µM and an EC50 (IFNgamma; [3]) of 1.13 µM. It also gave an EC50 (IL-1β) of 0.89 µM.

`CCCCCc1cc(OC)c(C/C=C(\C)CCC=C(C)C)c(O)c1OC` [Formula XLII] showed an EC50 [1] of 18 µM, an EC50 (TNFa; [2]) of over 10 µM and an EC50 (IFNgamma; [3]) of 4.1 µM. It also gave an EC50 (IL-1β) of over 10 µM.

With `CCCCCC1=C(NC)C(=O)C(C/C=C(\C)CCC=C(C)C)=C(O)C1=O` [Formula XLI] the EC50 [1] was 28.8 µM, the EC50 (TNFa; [2]) was over 10 µM and the EC50 (IFNgamma; [3]) was 2.51 µM. The EC50 (IL-1β) was 0.12 µM.

Compound `CCCCCc1cc(O)c(C/C=C(\C)CCC=C(C)C)c(O)c1O` [Formula XXXIX] has an EC50 [1, 4] of 2.82 µM, an EC50 (TNFa; Homo sapiens, PBMC, 6 h) of 6.2 µM and an EC50 (IFNgamma; Homo sapiens, PBMC, 40 h) of 1.85 µM. The EC50 (IL-1β) was 0.89 µM.

With Cannabigerol Quinone [Formula VI] the “stronger inhibition of 15-Lox compared to Cox-2” value [1] was “over 60 fold”, the EC50 [1, 4] was 0.98 µM and the EC50 (TNFa; human PBMCs, LPS 100 ng/mL 6 hr) was 18.5 µM. For the same compound, the “stronger inhibition of IFNγ compared to Cox-2” value (IFNgamma) was “over 60 fold”, the EC50 (IFNgamma; human PBMCs, PHA-M 10 ug/mL 40 hr) was 0.91 µM and the EC50 (IL-1β) was 5.3 µM.

From patent US20250073184A1, “CANNABIGEROQUINONE COMPOUNDS, COMPOSITIONS INCLUDING SUCH COMPOUNDS, AND USES OF SUCH COMPOUNDS AND COMPOSITIONS” (Juva Life, Inc., priority 2021, published 2025)
